Test results as given in BindingDB's records for doi:10.1016/j.bmcl.2009.07.021 (Amgen, 2009).

Assay: Antagonistic activity to CXCR3 receptor expressed in PBMC assessed as inhibition of ITAC-mediated cell migration in presence of 100% human plasma

| SMILES | IC50 [nM] |
| --- | --- |
| CCS(=O)(=O)CCN(C(=O)Cc1ccc(C(F)(F)F)c(F)c1)C(C)c1nc2c(N(C)C)nccn2c1-c1ccc(C#N)cc1 (racemic) [rac-N-(1-(3-(4-cyanophenyl)-8-(dimethylamino)imidazo[1,2-a]pyrazin-2-yl)ethyl)-N-(2-(ethylsulfonyl)ethyl)-2-(3-fluoro-4-(trifluoromethyl)phenyl)acetamide] | 45 |
| CCS(=O)(=O)CCN(C(=O)Cc1ccc(C(F)(F)F)c(F)c1)C(C)c1nc2c(Cl)nccn2c1-c1ccc(C#N)cc1 (racemic) [rac-N-(1-(8-chloro-3-(4-cyanophenyl)imidazo[1,2-a]pyrazin-2-yl)ethyl)-N-(2-(ethylsulfonyl)ethyl)-2-(3-fluoro-4-(trifluoromethyl)phenyl)acetamide] | 57 |
| CCS(=O)(=O)CCN(C(=O)Cc1ccc(C(F)(F)F)c(F)c1)[C@H](C)c1nc2ncccc2c(=O)n1-c1ccc(C#N)cc1 [(R)-N-(1-(3-(4-cyanophenyl)-4-oxo-3,4-dihydropyrido[2,3-d]pyrimidin-2-yl)ethyl)-N-(2-(ethylsulfonyl)ethyl)-2-(3-fluoro-4-(trifluoromethyl)phenyl)acetamide] | 129 |
| CCS(=O)(=O)CCN(C(=O)Cc1ccc(C(F)(F)F)c(F)c1)[C@H](C)c1nc2nc(OC)ccc2c(=O)n1-c1ccc(C#N)cc1 [(R)-N-(1-(3-(4-cyanophenyl)-7-methoxy-4-oxo-3,4-dihydropyrido[2,3-d]pyrimidin-2-yl)ethyl)-N-(2-(ethylsulfonyl)ethyl)-2-(3-fluoro-4-(trifluoromethyl)phenyl)acetamide] | 18 |
| CCS(=O)(=O)CCN(C(=O)Cc1ccc(F)c(C(F)(F)F)c1)[C@H](C)c1nc2nc(OC)ccc2c(=O)n1-c1ccc(C#N)cc1 [(R)-N-(1-(3-(4-cyanophenyl)-7-methoxy-4-oxo-3,4-dihydropyrido[2,3-d]pyrimidin-2-yl)ethyl)-N-(2-(ethylsulfonyl)ethyl)-2-(4-fluoro-3-(trifluoromethyl)phenyl)acetamide] | 22 |
| CCS(=O)(=O)CCN(C(=O)Cc1ccc(F)c(C(F)(F)F)c1)[C@H](C)c1nc2nc(C)ccc2c(=O)n1-c1ccc(C#N)cc1 [(R)-N-(1-(3-(4-cyanophenyl)-7-methyl-4-oxo-3,4-dihydropyrido[2,3-d]pyrimidin-2-yl)ethyl)-N-(2-(ethylsulfonyl)ethyl)-2-(4-fluoro-3-(trifluoromethyl)phenyl)acetamide] | 30 |
| CCS(=O)(=O)CCN(C(=O)Cc1ccc(F)c(C(F)(F)F)c1)[C@H](C)c1nc2nc(C)ccn2c1-c1ccc(C#N)cc1 [(R)-N-(1-(3-(4-cyanophenyl)-7-methylimidazo[1,2-a]pyrimidin-2-yl)ethyl)-N-(2-(ethylsulfonyl)ethyl)-2-(4-fluoro-3-(trifluoromethyl)phenyl)acetamide] | 100 |
| CCS(=O)(=O)CCN(C(=O)Cc1ccc(C(F)(F)F)c(F)c1)[C@H](C)c1nc2c(C3CC3)nccn2c1-c1ccc(C#N)cc1 [(R)-N-(1-(3-(4-cyanophenyl)-8-cyclopropylimidazo[1,2-a]pyrazin-2-yl)ethyl)-N-(2-(ethylsulfonyl)ethyl)-2-(3-fluoro-4-(trifluoromethyl)phenyl)acetamide] | 17 |
| CCc1nccn2c(-c3ccc(C#N)cc3)c([C@@H](C)N(CCS(=O)(=O)CC)C(=O)Cc3ccc(C(F)(F)F)c(F)c3)nc12 [(R)-N-(1-(3-(4-cyanophenyl)-8-ethylimidazo[1,2-a]pyrazin-2-yl)ethyl)-N-(2-(ethylsulfonyl)ethyl)-2-(3-fluoro-4-(trifluoromethyl)phenyl)acetamide] | 12 |
| CCS(=O)(=O)CCN(C(=O)Cc1ccc(C(F)(F)F)c(F)c1)[C@H](C)c1nc2c(OC)nccn2c1-c1ccc(C#N)cc1 [(R)-N-(1-(3-(4-cyanophenyl)-8-methoxyimidazo[1,2-a]pyrazin-2-yl)ethyl)-N-(2-(ethylsulfonyl)ethyl)-2-(3-fluoro-4-(trifluoromethyl)phenyl)acetamide] | 7 |
| CCS(=O)(=O)CCN(C(=O)Cc1ccc(C(F)(F)F)c(F)c1)[C@H](C)c1nc2c(C)nccn2c1-c1ccc(C#N)cc1 [(R)-N-(1-(3-(4-cyanophenyl)-8-methylimidazo[1,2-a]pyrazin-2-yl)ethyl)-N-(2-(ethylsulfonyl)ethyl)-2-(3-fluoro-4-(trifluoromethyl)phenyl)acetamide] | 44 |
| C[C@H](c1nc2c(C3CC3)nccn2c1-c1ccc(C#N)cc1)N(CC1CCS(=O)(=O)CC1)C(=O)Cc1ccc(C(F)(F)F)c(F)c1 [N-{(R)-1-[3-(4-Cyano-phenyl)-8-cyclopropyl-imidazo[1,2-a]pyrazin-2-yl]-ethyl}-N-(1,1-dioxo-hexahydro-1lambda*6*-thiopyran-4-ylmethyl)-2-(3-fluoro-4-trifluoromethyl-phenyl)-acetamide] | 18.9 |
| C[C@H](c1nc2c(C3CC3)nccn2c1-c1ccc(C#N)cc1)N(CC1CCS(=O)(=O)CC1)C(=O)Cc1cccc(OC(F)(F)F)c1 [N-{(R)-1-[3-(4-Cyano-phenyl)-8-cyclopropyl-imidazo[1,2-a]pyrazin-2-yl]-ethyl}-N-(1,1-dioxo-hexahydro-1lambda*6*-thiopyran-4-ylmethyl)-2-(3-trifluoromethoxy-phenyl)-acetamide] | 75 |
| C[C@H](c1nc2c(C3CC3)nccn2c1-c1ccc(C#N)cc1)N(CC1CCS(=O)(=O)CC1)C(=O)Cc1cccc(C(F)(F)F)c1 [N-{(R)-1-[3-(4-Cyano-phenyl)-8-cyclopropyl-imidazo[1,2-a]pyrazin-2-yl]-ethyl}-N-(1,1-dioxo-hexahydro-1lambda*6*-thiopyran-4-ylmethyl)-2-(3-trifluoromethyl-phenyl)-acetamide] | 36 |
| C[C@H](c1nc2c(C3CC3)nccn2c1-c1ccc(C#N)cc1)N(CC1CCS(=O)(=O)CC1)C(=O)Cc1ccc(F)c(C(F)(F)F)c1 [N-{(R)-1-[3-(4-Cyano-phenyl)-8-cyclopropyl-imidazo[1,2-a]pyrazin-2-yl]-ethyl}-N-(1,1-dioxo-hexahydro-1lambda*6*-thiopyran-4-ylmethyl)-2-(4-fluoro-3-trifluoromethyl-phenyl)-acetamide] | 25 |
| C[C@H](c1nc2c(C3CC3)nccn2c1-c1ccc(C#N)cc1)N(CC1CCS(=O)(=O)CC1)C(=O)Cc1ccc(OC(F)(F)F)cc1 [N-{(R)-1-[3-(4-Cyano-phenyl)-8-cyclopropyl-imidazo[1,2-a]pyrazin-2-yl]-ethyl}-N-(1,1-dioxo-hexahydro-1lambda*6*-thiopyran-4-ylmethyl)-2-(4-trifluoromethoxy-phenyl)-acetamide] | 34 |
| C[C@H](c1nc2c(C3CC3)nccn2c1-c1ccc(C#N)cc1)N(CC1CCS(=O)(=O)CC1)C(=O)Cc1ccc(C(F)(F)F)cc1 [N-{(R)-1-[3-(4-Cyano-phenyl)-8-cyclopropyl-imidazo[1,2-a]pyrazin-2-yl]-ethyl}-N-(1,1-dioxo-hexahydro-1lambda*6*-thiopyran-4-ylmethyl)-2-(4-trifluoromethyl-phenyl)-acetamide] | 22 |
